According to ChEMBL document CHEMBL4813948, “Cytotoxic and Anti-Inflammatory Sesquiterpenes from the Whole Plants of Centipeda minima” (J Nat Prod, 2021):

Columns and labels:
RAW264.7 [1] = assay: Anti-inflammatory activity in mouse RAW264.7 cells assessed as inhibition of LPS-induced NO production incubated for 24 hrs by Griess reagent based assay; assay type: functional, cell-based; conditions: RAW264.7, 24 h
HCT-116 = assay: Cytotoxicity against human HCT-116 cells assessed as reduction in cell viability incubated for 48 hrs by MTT assay; assay type: functional, cell-based; conditions: HCT-116, 48 h
HepG2 = assay: Cytotoxicity against human HepG2 cells assessed as reduction in cell viability incubated for 48 hrs by MTT assay; assay type: functional, cell-based; conditions: HepG2, 48 h
HeLa = assay: Cytotoxicity against human HeLa cells assessed as reduction in cell viability incubated for 48 hrs by MTT assay; assay type: functional, cell-based
RAW264.7 [2] = assay: Cytotoxicity against mouse RAW264.7 cells after 24 hrs by MTT assay; assay type: cell-based; conditions: raw264.7, 24 h

Row | IC50 (RAW264.7 [1]) | SMILES | IC50 (HCT-116) | IC50 (HepG2) | IC50 (HeLa) | Activity (RAW264.7 [2])
1 |  | C=C(C)C(=O)O[C@@H]1[C@@H]2[C@H](C[C@H](C)C3=CCC(=O)[C@@]31C)OC(=O)[C@@H]2C | > 10 µM | > 10 µM | > 10 µM | 
2 |  | C=C1C(=O)O[C@H]2C[C@@H](C)[C@@H]3[C@@H](OC(=O)C(C)C)C[C@@H](OC(=O)C(C)C)[C@@]3(C)C[C@H]12 | > 10 µM | 6.5 µM | > 10 µM | 
3 | 2.4 µM | CCC(C)C(=O)O[C@H]1[C@@H]2[C@H](C)C(=O)O[C@@H]2C[C@@H](C)[C@@H]2C=CC(=O)[C@]21C (stereo not given in full) | 7.3 µM | > 10 µM | 2.4 µM | 
4 |  | C/C=C(/C)C(=O)O[C@H]1[C@@H]2[C@H](C)C(=O)O[C@@H]2C[C@@H](C)[C@@H]2C=CC(=O)[C@]21C [BREVILIN A] | > 10 µM | > 10 µM | 9.2 µM | Toxic
5 |  | C=C1C(=O)O[C@H]2C[C@@H](C)[C@@H]3[C@@H](OC(=O)C(C)C)C[C@@H](OC(=O)/C(C)=C/C)[C@@]3(C)C[C@H]12 | > 10 µM | 8.7 µM | > 10 µM | 
6 | > 10 µM | C/C=C(/C)C(=O)O[C@H]1[C@@H]2[C@H](C)C(=O)O[C@@H]2C[C@@H](C)[C@@H]2[C@H](OC)CC(=O)[C@]21C | > 10 µM | > 10 µM | > 10 µM | 
7 |  | C=C1C(=O)O[C@@H]2C[C@@H](C)[C@@H]3C(OC(=O)/C(C)=C\C)=C[C@@]4(C)O[C@@]34C[C@H]12 | > 10 µM | > 10 µM | > 10 µM | 
8 |  | C=C1C(=O)O[C@@H]2C[C@@H](C)[C@@H]3C=CC(=O)[C@@]3(C)[C@@H](OC(=O)C=C(C)C)[C@H]12 | 0.8 µM | 1.5 µM | 2.6 µM | 
9 |  | C=C1C(=O)O[C@@H]2C[C@@H](C)[C@@H]3C=CC(=O)[C@@]3(C)[C@@H](OC(=O)C(C)C)[C@H]12 [HELENALINISOBUTYRATE] | 0.4 µM | 1.8 µM | 1.4 µM | 
10 |  | C=C1C(=O)O[C@H]2C[C@@H](C)[C@@H]3[C@@H](OC(=O)/C(C)=C/C)C[C@@H](OC(=O)/C(C)=C\C)[C@@]3(C)C[C@H]12 | 6.6 µM | 4.1 µM | 7.8 µM | 
11 |  | CC(C)=CC(=O)O[C@H]1[C@@H]2[C@H](C)C(=O)O[C@@H]2C[C@@H](C)C2=CCC(=O)[C@]21C | > 10 µM | > 10 µM | > 10 µM | 
12 |  | CC(C)=CC(=O)O[C@H]1[C@@H]2[C@H](C)C(=O)O[C@@H]2C[C@@H](C)[C@@H]2CCC(=O)[C@]21C | > 10 µM | > 10 µM | > 10 µM | 
13 |  | C=C1C(=O)O[C@@H]2C[C@@H](C)[C@@H]3C=CC(=O)[C@@]3(C)[C@@H](OC(=O)/C(C)=C\C)[C@H]12 | 2.9 µM | 1.1 µM | 0.8 µM | 
14 | 0.2 µM | C=C1C(=O)O[C@H]2C[C@@H](C)[C@@H]3[C@@H](OC(=O)C(C)C)C[C@@H](OC(=O)CC(C)C)[C@@]3(C)C[C@H]12 | > 10 µM | > 10 µM | > 10 µM | 
15 | > 10 µM | C/C=C(/C)C(=O)O[C@H]1[C@@H]2[C@H](C)C(=O)O[C@@H]2C[C@@H](C)[C@@H]2[C@@H](OCC)CC(=O)[C@]21C | > 10 µM | > 10 µM | > 10 µM | 
16 | 1.7 µM | CC(C)CC(=O)O[C@H]1[C@@H]2[C@H](C)C(=O)O[C@@H]2C[C@@H](C)[C@@H]2C=CC(=O)[C@]21C | 7.2 µM | > 10 µM | 5.5 µM | 
17 | > 10 µM | C/C=C(/C)C(=O)O[C@H]1[C@@H]2[C@H](C)C(=O)O[C@@H]2C[C@@H](C)[C@@H]2CCC(=O)[C@]21C | > 10 µM | > 10 µM | > 10 µM | 
18 |  | C=C(C)C(=O)O[C@H]1[C@@H]2[C@H](C)C(=O)O[C@@H]2C[C@@H](C)[C@@H]2CCC(=O)[C@]21C | > 10 µM | > 10 µM | > 10 µM | 
19 |  | C=C1C(=O)O[C@H]2C[C@@H](C)[C@@H]3[C@@H](OC(=O)C(C)C)C[C@@H](OC(=O)C=C(C)C)[C@@]3(C)C[C@H]12 | 8.1 µM | 6.5 µM | > 10 µM | 
20 |  | C=C1C(=O)O[C@@H]2C[C@@H](C)[C@@H]3[C@@H](OC)CC(=O)[C@@]3(C)[C@@H](OC(=O)/C(C)=C\C)[C@H]12 | > 10 µM | > 10 µM | > 10 µM | 
21 | 0.1 µM | C=C1C(=O)O[C@H]2C[C@@H](C)[C@@H]3[C@@H](OC(=O)CC(C)C)C[C@@H](OC(=O)CC(C)C)[C@@]3(C)C[C@H]12 | 9.9 µM | > 10 µM | > 10 µM | 
22 |  | C=C1C(=O)O[C@H]2C[C@@H](C)[C@@H]3[C@@H](OC(=O)C=C(C)C)C[C@@H](OC(=O)/C(C)=C\C)[C@@]3(C)C[C@H]12 | 9.4 µM | 3.5 µM | > 10 µM | 
23 | > 10 µM | C=C1C(=O)O[C@H]2C[C@@H](C)[C@@H]3[C@@H](OC(=O)/C(C)=C\C)C[C@@H](OC(=O)CC(C)C)[C@@]3(C)C[C@H]12 | 5.2 µM | 2.9 µM | 9.4 µM | 
24 | 3.9 µM | C=C(C)C(=O)O[C@@H]1C[C@H](OC(=O)C(C)C)[C@H]2[C@H](C)C[C@@H]3OC(=O)C(=C)[C@H]3C[C@@]21C | > 10 µM | > 10 µM | > 10 µM | 

Row | SMILES | IC50 (RAW264.7 [1]) | IC50 (HCT-116) | IC50 (HepG2) | IC50 (HeLa) | Activity (RAW264.7 [2])
25 | C=C1C(=O)O[C@@H]2C[C@@H](C)[C@@H]3C=CC(=O)[C@@]3(C)[C@@H](OC(=O)CC(C)C)[C@H]12 | 0.2 µM | 3.3 µM | 2.6 µM | 2 µM | 
26 | C/C=C(\C)C(=O)O[C@H]1[C@@H]2[C@H](C)C(=O)O[C@@H]2C[C@@H](C)[C@@H]2C=CC(=O)[C@]21C | > 10 µM | > 10 µM | > 10 µM | > 10 µM | 
